ChEMBL document CHEMBL1909294, “Translating clinical findings into knowledge in drug safety evaluation--drug induced liver injury prediction system (DILIps)” (PLoS Comput Biol, 2011)

Experiments:
Hepatotoxicity [1] = test system: Hepatotoxicity;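 as to HepSE bilirubinemia: bilirubinemia hepatic side effect score drawn from the DILIps training data, a prediction system for drug-induced liver injury; call rule not given here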;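 as to HepSE cholecystitis: Cholecystitis-related hepatic side effect score drawn from the DILIps (drug-induced liver injury prediction) training data set; call rule not given here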;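 as to HepSE cholelithiasis: hepatic side effect score for cholelithiasis, drawn from the DILIps training data for predicting drug-induced liver injury; call rule not given here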;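 as to HepSE cirrhosis: cirrhosis hepatic side effect score taken from the DILIps (drug-induced liver injury prediction) training set; call rule not given here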;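 as to HepSE elevated liver function tests: hepatic side effect score for raised liver function tests, as recorded in the DILIps training set used for predicting drug-induced liver injury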; as to HepSE hepatic failure: call rule not given here;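 as to HepSE hepatomegaly: hepatic side effect score for hepatomegaly, taken from the training set of the DILIps drug-induced liver injury prediction system; call rule not given here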
Hepatotoxicity [2] = test system: Hepatotoxicity; remark: listed apart in the source;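 as to HepSE bilirubinemia: bilirubinemia hepatic side effect score drawn from the DILIps training data, a prediction system for drug-induced liver injury; call rule not given here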;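 as to HepSE cholecystitis: Cholecystitis-related hepatic side effect score drawn from the DILIps (drug-induced liver injury prediction) training data set; call rule not given here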;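 as to HepSE cholelithiasis: hepatic side effect score for cholelithiasis, drawn from the DILIps training data for predicting drug-induced liver injury; call rule not given here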;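 as to HepSE cirrhosis: cirrhosis hepatic side effect score taken from the DILIps (drug-induced liver injury prediction) training set; call rule not given here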;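 as to HepSE elevated liver function tests: hepatic side effect score for raised liver function tests, as recorded in the DILIps training set used for predicting drug-induced liver injury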; as to HepSE hepatic failure: call rule not given here
Hepatotoxicity [3] = test system: Hepatotoxicity; remark: listed apart in the source;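 as to HepSE bilirubinemia: bilirubinemia hepatic side effect score drawn from the DILIps training data, a prediction system for drug-induced liver injury; call rule not given here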;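 as to HepSE cholecystitis: Cholecystitis-related hepatic side effect score drawn from the DILIps (drug-induced liver injury prediction) training data set; call rule not given here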;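 as to HepSE cholelithiasis: hepatic side effect score for cholelithiasis, drawn from the DILIps training data for predicting drug-induced liver injury; call rule not given here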;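 as to HepSE cirrhosis: cirrhosis hepatic side effect score taken from the DILIps (drug-induced liver injury prediction) training set; call rule not given here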;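 as to HepSE elevated liver function tests: hepatic side effect score for raised liver function tests, as recorded in the DILIps training set used for predicting drug-induced liver injury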; as to HepSE hepatic failure: call rule not given here
Hepatotoxicity [4] = test system: Hepatotoxicity; remark: listed apart in the source;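 as to HepSE bilirubinemia: bilirubinemia hepatic side effect score drawn from the DILIps training data, a prediction system for drug-induced liver injury; call rule not given here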;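 as to HepSE cholecystitis: Cholecystitis-related hepatic side effect score drawn from the DILIps (drug-induced liver injury prediction) training data set; call rule not given here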;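 as to HepSE cholelithiasis: hepatic side effect score for cholelithiasis, drawn from the DILIps training data for predicting drug-induced liver injury; call rule not given here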;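 as to HepSE cirrhosis: cirrhosis hepatic side effect score taken from the DILIps (drug-induced liver injury prediction) training set; call rule not given here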;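 as to HepSE elevated liver function tests: hepatic side effect score for raised liver function tests, as recorded in the DILIps training set used for predicting drug-induced liver injury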; as to HepSE hepatic failure: call rule not given here
Hepatotoxicity [5] = test system: Hepatotoxicity; remark: listed apart in the source; as to HepSE hepatic failure: call rule not given here
Hepatotoxicity [6] = test system: Hepatotoxicity; remark: listed apart in the source; as to HepSE hepatic failure: call rule not given here
Hepatotoxicity [7] = test system: Hepatotoxicity; remark: listed apart in the source
Hepatotoxicity [8] = test system: Hepatotoxicity; remark: listed apart in the source
Hepatotoxicity [9] = test system: Hepatotoxicity; remark: listed apart in the source
Hepatotoxicity [10] = test system: Hepatotoxicity; remark: listed apart in the source
Hepatotoxicity [11] = test system: Hepatotoxicity; remark: listed apart in the source
Hepatotoxicity [12] = test system: Hepatotoxicity; remark: listed apart in the source
Hepatotoxicity [13] = test system: Hepatotoxicity; remark: listed apart in the source
Hepatotoxicity [14] = test system: Hepatotoxicity; remark: listed apart in the source

SMILES | HepSE_bilirubinemia (Hepatotoxicity [1]) | HepSE_cholecystitis (Hepatotoxicity [2]) | HepSE_cholelithiasis (Hepatotoxicity [3]) | HepSE_cirrhosis (Hepatotoxicity [4]) | HepSE_elevated liver function tests (Hepatotoxicity [5]) | HepSE_hepatic failure (Hepatotoxicity [6]) | HepSE_hepatic necrosis (Hepatotoxicity [7]) | HepSE_hepatitis (Hepatotoxicity [8]) | HepSE_hepatomegaly (Hepatotoxicity [9]) | HepSE_jaundice (Hepatotoxicity [10]) | HepSE_liver disease (Hepatotoxicity [11]) | HepSE_liver fatty (Hepatotoxicity [12]) | HepSE_liver function tests abnormal (Hepatotoxicity [13]) | HepSE_Combined Scores (Hepatotoxicity [14])
CC(C)CN(C[C@@H](O)[C@H](Cc1ccccc1)NC(=O)O[C@H]1CCOC1)S(=O)(=O)c1ccc(N)cc1 | 0 | 0 | 0 | 0 | 0 | 0 | 0 | 0 | 0 | 0 | 0 | 0 | 0 | 0
CCOC(=O)[C@H](CCc1ccccc1)N[C@@H](C)C(=O)N1[C@H](C(=O)O)C[C@@H]2CCC[C@@H]21 | 0 | 0 | 0 | 0 | 0 | 1 | 1 | 1 | 0 | 1 | 0 | 0 | 0 | 4
COc1cc2c(cc1OC)[C@@H](Cc1cc(OC)c(OC)c(OC)c1)[N+](C)(CCCOC(=O)CC/C=C/CCC(=O)OCCC[N+]1(C)CCc3cc(OC)c(OC)cc3[C@H]1Cc1cc(OC)c(OC)c(OC)c1)CC2 (stereo partly drawn) | 0 | 0 | 0 | 0 | 0 | 0 | 0 | 0 | 0 | 0 | 0 | 0 | 0 | 0
[Mg] | 0 | 0 | 0 | 0 | 0 | 0 | 0 | 0 | 0 | 0 | 0 | 0 | 0 | 0
COc1ccc(C[C@@H]2c3cc(OC)c(OC)cc3CC[N@+]2(C)CCC(=O)OCCCCCOC(=O)CC[N@@+]2(C)CCc3cc(OC)c(OC)cc3[C@H]2Cc2ccc(OC)c(OC)c2)cc1OC | 0 | 0 | 0 | 0 | 0 | 0 | 0 | 0 | 0 | 0 | 0 | 0 | 0 | 0
C[C@@H](NCCCc1cccc(C(F)(F)F)c1)c1cccc2ccccc12 | 0 | 0 | 0 | 0 | 0 | 0 | 0 | 0 | 0 | 0 | 0 | 0 | 0 | 0
Nc1ncnc2c1ncn2[C@@H]1O[C@H](COP(=O)(S)S)[C@@H](O)[C@H]1O | 0 | 0 | 0 | 1 | 1 | 1 | 1 | 1 | 0 | 1 | 0 | 0 | 0 | 6
O=C(CO)[C@@H](O)[C@@H](O)COP(=O)(O)O | 0 | 0 | 0 | 0 | 0 | 0 | 0 | 0 | 0 | 0 | 0 | 0 | 0 | 0
OC[C@H]1O[C@@H](O)[C@@H](F)[C@@H](O)[C@@H]1O | 0 | 0 | 0 | 0 | 0 | 0 | 0 | 0 | 0 | 0 | 0 | 0 | 0 | 0
CC(C)CN(C[C@@H](O)[C@H](Cc1ccccc1)NC(=O)O[C@H]1CO[C@H]2OCC[C@H]21)S(=O)(=O)c1ccc(N)cc1 | 1 | 0 | 0 | 1 | 0 | 1 | 0 | 1 | 0 | 1 | 0 | 0 | 0 | 5
COc1ccc(CC2c3cc(OC)c(OC)cc3CC[N+]2(C)CCC(=O)OCCCCCOC(=O)CC[N+]2(C)CCc3cc(OC)c(OC)cc3C2Cc2ccc(OC)c(OC)c2)cc1OC (stereo not drawn) | 0 | 0 | 0 | 0 | 0 | 0 | 0 | 0 | 0 | 0 | 0 | 0 | 0 | 0
CN1CCC[C@@H]1Cc1c[nH]c2ccc(CCS(=O)(=O)c3ccccc3)cc12 | 1 | 0 | 0 | 0 | 0 | 0 | 0 | 0 | 0 | 0 | 0 | 0 | 1 | 2
CCCc1nc(C)c2c(=O)[nH]c(-c3cc(S(=O)(=O)N4CCN(CC)CC4)ccc3OCC)nn12 | 0 | 0 | 0 | 0 | 0 | 0 | 0 | 0 | 0 | 0 | 0 | 0 | 1 | 1
CCOC(=O)[C@H](CCc1ccccc1)N[C@@H](C)C(=O)N1Cc2ccccc2C[C@H]1C(=O)O | 0 | 0 | 0 | 0 | 0 | 1 | 0 | 1 | 0 | 0 | 0 | 0 | 1 | 3
CN1CC(=O)N2[C@H](c3ccc4c(c3)OCO4)c3[nH]c4ccccc4c3C[C@@H]2C1=O | 0 | 0 | 0 | 0 | 0 | 0 | 0 | 0 | 0 | 0 | 0 | 0 | 1 | 1
CCCN(CCc1ccsc1)C1CCc2c(O)cccc2C1 (stereo not drawn) | 0 | 0 | 0 | 0 | 0 | 0 | 0 | 0 | 0 | 0 | 0 | 0 | 0 | 0
N[C@@H](Cc1ccc(N(CCCl)CCCl)cc1)C(=O)O | 0 | 0 | 0 | 0 | 0 | 0 | 0 | 1 | 0 | 1 | 0 | 0 | 1 | 3
